Series [1] is described as follows: In vivo dog pharmacokinetics. The note with it: beagle dogs; for AUC0-72 h of the named analyte in plasma: label = analyte measured.
A short description of series [2]: Solubility in FaSSIF and FeSSIF. The class given is physicochemical. The note with it: thermodynamic from solid. The procedure:
Solubility was determined at ambient temperature in buffered fasted-state simulated intestinal fluid (FaSSIF, pH 6.5) and buffered fed-state simulated intestinal fluid (FeSSIF, pH 5.0) prepared in-house using BioRelevant Simulated Intestinal Fluid (SIF) powder. Solids were added to FaSSIF or FeSSIF in 1.5-mL Eppendorf tubes, sonicated for 1 minute, then agitated for 2.5 hours in an Eppendorf ThermoMixer C. To determine concentration in solution, the suspensions were centrifuged for 10 min at 14,800 rpm and supernatants were diluted to a volume of 1 mL with 1:1 v/v acetonitrile:water. All diluted supernatants were analyzed by UPLC using a Waters Acquity UPLC with a PDA UV detector.

A short description of series [3]: Dog GI S9 stability.
Protocol: (§2) GI S9 stability assays were performed. Generally, a substrate concentration of 2 μM was used, a protein concentration of 1.0 mg/mL intestinal S9 was used, and a reaction buffer of 1× phosphate buffered saline (PBS) was used. Intestinal S9 was provided by BioIVT (dog) or Xenotech (human). […] Plates were vortexed, and then centrifuged at 3000×G for 30 minutes. 150 μL of supernatant was transferred to new plates and 150 μL water was added. New plates were vortexed to mix.
(§3) Samples were analyzed with a Leap HTC Autosampler and a Dionex UltiMate 3000 HPLC system interfaced to a Thermo Q-Exactive mass spectrometer operation in positive ion electrospray mode. A Thermo Scientific Hypersil GOLD (1.9 μM particle size, 50×2.1 mm) HPLC column was used and mobile phase was pumped at 0.5 mL/min. Elution of analytes was achieved by a series of linear gradients of acetonitrile in water containing 0.1% (v/v) formic acid. Quantification was by analyte/internal standard peak area ratio (PAR).
Series [4] can be described thus: Human GI S9 stability.
Protocol: as §2, §3
Series [5] is described as follows: Human plasma stability. The note with it: substrate 2 μM, read-out: Human Plasma T½. The class given is in vitro ADME. On the procedure:
(§1) Plasma stability assays were performed in human and dog. Duplicate sets were performed with a tecan liquid handler or with cluster tubes in a heat block. Generally, a substrate concentration of 2 μM was used. Plasma in sodium EDTA was provided by BioIVT as whole plasma with K2 EDA as anti-coagulent.

A short description of series [6]: Dog plasma stability. The class given is in vitro ADME. The note with it: substrate 2 μM, read-out: Dog Plasma T½. The procedure: as §1
[7] abbreviates: oral powder in capsule, dosed Compound B 9.7 mg-eq/kg.
[8] abbreviates: fasted-state simulated intestinal fluid (FaSSIF), fassif, fasted-state simulated intestinal fluid pH 6.5, ambient temperature, read-out: FaSSIF (pH 6.5) solubility.
[9] abbreviates: fed-state simulated intestinal fluid (FeSSIF), fessif, fed-state simulated intestinal fluid pH 5.0, ambient temperature, read-out: FeSSIF (pH 5.0) solubility.

Here are results for 13 compounds from patent US20220259234A1, “COT MODULATORS AND METHODS OF USE THEREOF” (Gilead Sciences, Inc., priority 2019, published 2022).

Values after ≈ are worked out from the molar mass of the structure shown. Like-named read-outs stand apart in the source and are kept apart here.

One may read the solubility as the concentration that dissolves in the medium under given conditions.

As for `Cn1ccc2c([C@@H](c3cn(C45CC(C4)C5)nn3)N(C(=O)OCOP(=O)(O)O)c3cc(Cl)c4ncc(C#N)c(NCC(C)(C)C)c4c3)cccc2c1=O` [Compound B], the “AUC0-72 h of the named analyte in plasma” value in series [1] (setting [7]) is reported as “BLQ”.
`Cn1ccc2c([C@@H](c3cn(C45CC(C4)C5)nn3)N(C(=O)OCCCOP(=O)(O)O)c3cc(Cl)c4ncc(C#N)c(NCC(C)(C)C)c4c3)cccc2c1=O` [Compound C]: the “AUC0-72 h of the named analyte in plasma” value in series [1] (oral 3 mg/mL solution, dosed Compound C 3 mg-eq/kg) is on record as “BLQ”. Also, the “in vivo conversion of dosed compound” value in series [1] (oral solution of Compound C, plasma over 72 hour) was “converted in vivo to both Compound D and Compound A in measurable amounts”.
For `Cn1ccc2c([C@@H](c3cn(C45CC(C4)C5)nn3)N(C(=O)OCOP(=O)(O)O)c3cc(Cl)c4ncc(C#N)c(NCC(C)(C)C)c4c3)cccc2c1=O` [Example 1, (Phosphonooxy)methyl (S)-((1-(bicyclo[1.1.1]pentan-1-yl)-1H-1,2,3-triazol-4-yl)(2-methyl-1-oxo-1,2-dihydroisoquinolin-5-yl)methyl)(8-chloro-3-cyano-4-(neopentylamino)quinolin-6-yl)carbamate], the results for the solubility at 2.5 h in series [2] (setting [8]) and in series [2] (setting [9]) were over 1580 µg/mL and over 2170 µg/mL, respectively. The half-life at 2 μM in series [3] (intestinal S9) is 26 min; in series [4] (intestinal S9), 43 min; in series [5] it was 369 min; in series [6], 278 min.
Regarding `C[C@H](N)C(=O)OCOC(=O)N(c1cc(Cl)c2ncc(C#N)c(NCC(C)(C)C)c2c1)[C@H](c1cn(C23CC(C2)C3)nn1)c1cccc2c(=O)n(C)ccc12` [Example 2, ((((S)-(1-(bicyclo[1.1.1]pentan-1-yl)-1H-1,2,3-triazol-4-yl)(2-methyl-1-oxo-1,2-dihydroisoquinolin-5-yl)methyl)(8-chloro-3-cyano-4-(neopentylamino)quinolin-6-yl)carbamoyl)oxy)methyl L-alaninate], the solubility at 2.5 h in series [2] (setting [8]) is over 1880 µg/mL; in series [2] (setting [9]), over 1910 µg/mL. Further, the half-life at 2 μM in series [3] (intestinal S9) is 1 min; in series [4] (intestinal S9) it was under 1 min; in series [5], 14 min; in series [6], 3 min.
Regarding `Cn1ccc2c([C@@H](c3cn(C45CC(C4)C5)nn3)N(C(=O)OCCCOP(=O)(O)O)c3cc(Cl)c4ncc(C#N)c(NCC(C)(C)C)c4c3)cccc2c1=O` [Example 4, 3-(Phosphonooxy)propyl (S)-((1-(bicyclo[1.1.1]pentan-1-yl)-1H-1,2,3-triazol-4-yl)(2-methyl-1-oxo-1,2-dihydroisoquinolin-5-yl)methyl)(8-chloro-3-cyano-4-(neopentylamino)quinolin-6-yl)carbamate], the solubility at 2.5 h is 4 µg/mL (≈ 5.16 µM) in series [2] (setting [8]) and 210 µg/mL (≈ 271 µM) in series [2] (setting [9]). Moreover, the half-life at 2 μM was 12 min in series [3] (s9) and 21 min in series [4] (s9).
For the compound `Cc1nc(F)ccc1[C@@H](c1cn(C23CC(C2)C3)nn1)N(C(=O)OCOP(=O)(O)O)c1cc(C#N)c2ncc(C#N)c(NCC(C)(C)C)c2c1` [Example 6, (Phosphonooxy)methyl (S)-((1-(bicyclo[1.1.1]pentan-1-yl)-1H-1,2,3-triazol-4-yl)(6-fluoro-2-methylpyridin-3-yl)methyl)(3,8-dicyano-4-(neopentylamino)quinolin-6-yl)carbamate], the figures for the half-life at 2 μM in series [3] (s9) and in series [4] (s9) were 14 min and 25 min, respectively.
As for `CC(=O)OCOC(=O)N(c1cc(C#N)c2ncc(C#N)c(NCC(C)(C)C)c2c1)[C@H](c1cn(C23CC(C2)C3)nn1)c1ccc(F)nc1C` [Example 7, (S)-((((1-(bicyclo[1.1.1]pentan-1-yl)-1H-1,2,3-triazol-4-yl)(6-fluoro-2-methylpyridin-3-yl)methyl)(3,8-dicyano-4-(neopentylamino)quinolin-6-yl)carbamoyl)oxy)methyl acetate], the figures for the solubility at 2.5 h in series [2] (setting [8]) and in series [2] (setting [9]) were 12 µg/mL and 42 µg/mL, respectively. The same compound gave a half-life at 2 μM in series [4] (intestinal S9) of 3 min.
For `Cc1nc(F)ccc1[C@@H](c1cn(C23CC(C2)C3)nn1)N(C(=O)OCOC(=O)C1CCN(C)CC1)c1cc(C#N)c2ncc(C#N)c(NCC(C)(C)C)c2c1` [Example 8, (S)-((((1-(bicyclo[1.1.1]pentan-1-yl)-1H-1,2,3-triazol-4-yl)(6-fluoro-2-methylpyridin-3-yl)methyl)(3,8-dicyano-4-(neopentylamino)quinolin-6-yl)carbamoyl)oxy)methyl 1-methylpiperidine-4-carboxylate], the values for the solubility at 2.5 h in series [2] (setting [8]) and in series [2] (setting [9]) were 77 µg/mL (≈ 105 µM) and 450 µg/mL (≈ 612 µM), respectively. Moreover, the half-life at 2 μM stood at 165 min in series [4] (intestinal S9) and 237 min in series [5].
For `COC[C@@H](C)OC(=O)N(c1cc(C#N)c2ncc(C#N)c(NCC(C)(C)C)c2c1)[C@H](c1cn(C23CC(C2)C3)nn1)c1ccc(F)nc1C` [Example 9, (R)-1-methoxypropan-2-yl ((S)-(1-(bicyclo[1.1.1]pentan-1-yl)-1H-1,2,3-triazol-4-yl)(6-fluoro-2-methylpyridin-3-yl)methyl)(3,8-dicyano-4-(neopentylamino)quinolin-6-yl)carbamate], in that order: 12 µg/mL (≈ 18.4 µM), 52 µg/mL (≈ 79.8 µM), 789 min and 1580 min.
Take `Cc1nc(F)ccc1[C@@H](c1cn(C23CC(C2)C3)nn1)N(C(=O)OCOP(=O)(O)O)c1cc(C#N)c2ncc(C#N)c(N[C@H](C)C(C)(C)C)c2c1` [Example 10, (Phosphonooxy)methyl ((S)-(1-(bicyclo[1.1.1]pentan-1-yl)-1H-1,2,3-triazol-4-yl)(6-fluoro-2-methylpyridin-3-yl)methyl)(3,8-dicyano-4-(((R)-3,3-dimethylbutan-2-yl)amino)quinolin-6-yl)carbamate]: the half-life at 2 μM in series [3] (s9) amounted to 20 min; in series [4] (s9), 26 min.
On to `COC[C@@H](C)OC(=O)N(c1cc(C#N)c2ncc(C#N)c(N[C@H](C)C(C)(C)C)c2c1)[C@H](c1cn(C23CC(C2)C3)nn1)c1ccc(F)nc1C` [Example 12, (R)-1-methoxypropan-2-yl ((S)-(1-(bicyclo[1.1.1]pentan-1-yl)-1H-1,2,3-triazol-4-yl)(6-fluoro-2-methylpyridin-3-yl)methyl)(3,8-dicyano-4-(((R)-3,3-dimethylbutan-2-yl)amino)quinolin-6-yl)carbamate], for which the figures for the half-life at 2 μM in series [3] (intestinal S9) and in series [4] (intestinal S9) were 528 min and 477 min, respectively.
Take `Cc1nc(F)ccc1[C@@H](c1cn(C23CC(C2)C3)nn1)N(C(=O)C(=O)O)c1cc(C#N)c2ncc(C#N)c(N[C@H](C)C(C)(C)C)c2c1` [Example 13, 2-(((S)-(1-(bicyclo[1.1.1]pentan-1-yl)-1H-1,2,3-triazol-4-yl)(6-fluoro-2-methylpyridin-3-yl)methyl)(3,8-dicyano-4-(((R)-3,3-dimethylbutan-2-yl)amino)quinolin-6-yl)amino)-2-oxoacetic acid]: the half-life at 2 μM in series [3] (intestinal S9) and in series [4] (intestinal S9) was 789 min each time.
In the case of `Cn1ccc2c([C@@H](c3cn(C45CC(C4)C5)nn3)N(C(=O)OCO)c3cc(Cl)c4ncc(C#N)c(NCC(C)(C)C)c4c3)cccc2c1=O` [Intermediate A], the “AUC0-72 h of the named analyte in plasma” value in series [1] (setting [7]) was “BLQ”.
